According to ChEMBL document CHEMBL4376889, “Discovery of a Brain-Penetrant ATP-Competitive Inhibitor of the Mechanistic Target of Rapamycin (mTOR) for CNS Disorders” (J Med Chem, 2020):
Active and inactive are the calls of the source. No cut-off for these calls is given here.

Columns and labels:
[1] = Drug uptake in C57BL/6J mouse brain at 10 mg/kg, po incubated for 3 hrs by LC-MS/MS analysis; type: ADME, organism-based; settings: read-out: Drug uptake
[2] = target: Phosphatidylinositol 4,5-bisphosphate 3-kinase catalytic subunit beta isoform (Homo sapiens, UniProt P42338); test: Inhibition of PI3Kbeta (unknown origin)
Mus musculus [3] = test: In vivo inhibition of PI3KCA in C57BL/6J mouse assessed as reduction in AKT phosphorylation Thr308 at 1 to 10 mg/kg, po measured after 24 hrs by Western blot analysis; type: functional, organism-based
Cortical neurone = test: Inhibition of overgrowth of mouse primary cortical neuron harboring TSC1 deletion mutant at 200 nM incubated for 7 days by immunofluorescence assay; type: functional, cell-based
[4] = Ratio of drug concentration in brain to plasma in Sprague-Dawley rat at 3 mg/kg, po incubated for 1 hr by LC-MS/MS analysis; type: ADME, organism-based; settings: read-out: BPR
[5] = Ratio of drug concentration in brain to plasma in C57BL/6J mouse at 3 mg/kg, po incubated for 3 hrs by LC-MS/MS analysis; type: ADME, organism-based; settings: read-out: BPR
Mus musculus [6] = test: In vivo inhibition of mTOR pathway in C57BL/6J mouse assessed as reduction in mTORC1/mTORC2 complex by measuring PS6 phosphorylation level at 1 to 10 mg/kg, po measured after 8 hrs by Western blot analysis; type: functional, organism-based
[7] = Stability in rat liver microsomes assessed as intrinsic clearance; type: ADME, Microsome; settings: read-out: CLH
[8] = Ratio of drug concentration in brain to plasma in C57BL/6 mouse at 1 mg/kg, iv incubated for 7 hrs by LC-MS/MS analysis; type: ADME, organism-based; settings: read-out: BPR
[9] = target: Serine/threonine-protein kinase mTOR (Rattus norvegicus, UniProt P42346); test: Inhibition of mTOR in rat primary cortical neuron assessed as reduction in PS6 phosphorylation incubated for 4 hrs by Western blot analysis (reference value: 19 nM)
Mus musculus [10] = test: In vivo inhibition of mTOR pathway in C57BL/6J mouse assessed as reduction in mTORC1/mTORC2 complex by measuring AKT phosphorylation level at 1 to 10 mg/kg, po measured after 24 hrs by Western blot analysis; type: functional, organism-based
Cytochrome P450 3A4 = Cytochrome P450 3A4 (Homo sapiens, UniProt P08684); test: Inhibition of CYP3A4 (unknown origin); type: ADME
[11] = Selectivity index, ratio of IC50 for PDE4D (unknown origin) to IC50 for inhibition of mTOR in mouse MEF cells harboring TSC1 deletion mutant; type: cell-based
Mus musculus [12] = test: In vivo inhibition of mTOR pathway in C57BL/6J mouse assessed as reduction in mTORC1/mTORC2 complex by measuring PS6 phosphorylation level at 1 to 10 mg/kg, po measured after 24 hrs by Western blot analysis; type: functional, organism-based
[13] = Selectivity index, ratio of IC50 for ATR (unknown origin) to IC50 for inhibition of mTOR in mouse MEF cells harboring TSC1 deletion mutant; type: cell-based
[14] = AUC (0 to t) in C57BL/6 mouse at 1 mg/kg, iv by HPLC analysis; type: ADME, organism-based; settings: in vivo
[15] = target: Serine/threonine-protein kinase mTOR (Rattus norvegicus, UniProt P42346, S2215Y); test: Inhibition of mTOR S2215Y mutant in rat primary cortical neuron assessed as reduction in PS6 phosphorylation incubated for 4 hrs by Western blot analysis (reference value: 19 nM)
[16] = Half life in C57BL/6 mouse at 1 mg/kg, iv or 5 mg/kg, po by HPLC analysis; type: ADME, organism-based; settings: in vivo
Cytochrome P450 2D6 = Cytochrome P450 2D6 (Homo sapiens, UniProt P10635); test: Inhibition of CYP2D6 (unknown origin); type: ADME
[17] = target: Phosphatidylinositol 4,5-bisphosphate 3-kinase catalytic subunit gamma isoform (Homo sapiens, UniProt P48736); test: Inhibition of PI3Kgamma (unknown origin)
[18] = MRT (0 to t) in Sprague-Dawley rat at 1 mg/kg, iv or 3 mg/kg, po by HPLC analysis; type: ADME, organism-based; settings: in vivo
[19] = Ratio of drug concentration in brain to plasma in C57BL/6 mouse at 1 mg/kg, iv incubated for 0.5 hrs by LC-MS/MS analysis; type: ADME, organism-based; settings: read-out: BPR
[20] = Volume of distribution at steady state in C57BL/6 mouse at 1 mg/kg, iv or 5 mg/kg, po by HPLC analysis; type: ADME, organism-based; settings: in vivo, read-out: Vdss
[21] = AUC (0 to t) in Sprague-Dawley rat at 3 mg/kg, po by HPLC analysis; type: ADME, organism-based; settings: in vivo
[22] = Tmax in Sprague-Dawley rat at 1 mg/kg, iv or 3 mg/kg, po by HPLC analysis; type: ADME, organism-based; settings: in vivo
[23] = Oral bioavailability in C57BL/6 mouse at 5 mg/kg by HPLC analysis; type: ADME, organism-based; settings: in vivo
[24] = Drug uptake in C57BL/6J mouse brain at 3 mg/kg, po incubated for 3 hrs by LC-MS/MS analysis; type: ADME, organism-based; settings: read-out: Drug uptake
[25] = AUC (0 to t) in Sprague-Dawley rat at 1 mg/kg, iv by HPLC analysis; type: ADME, organism-based; settings: in vivo
[26] = target: Serine/threonine-protein kinase mTOR (Rattus norvegicus, UniProt P42346, C1483Y); test: Inhibition of mTOR C1483Y mutant in rat primary cortical neuron assessed as reduction in PS6 phosphorylation incubated for 4 hrs by Western blot analysis (reference value: 19 nM)
[27] = target: Phosphatidylinositol 4,5-bisphosphate 3-kinase catalytic subunit delta isoform (Homo sapiens, UniProt O00329); test: Inhibition of PI3Kdelta (unknown origin)
[28] = target: Serine/threonine-protein kinase mTOR (Rattus norvegicus, UniProt P42346, L1460P); test: Inhibition of mTOR L1460P mutant in rat primary cortical neuron assessed as reduction in PS6 phosphorylation incubated for 4 hrs by Western blot analysis (reference value: 19 nM)
[29] = Clearance in Sprague-Dawley rat at 1 mg/kg, iv or 3 mg/kg, po by HPLC analysis; type: ADME, organism-based; settings: in vivo
[30] = Protein binding in Sprague-Dawley rat brain homogenate at 5 uM incubated for 4 hrs by LC-MS/MS analysis; type: ADME, tissue-based; settings: read-out: PB (converted)
[31] = Stability in rat liver microsomes assessed as intrinsic clearance at 1 uM incubated for 30 mins by LC-MS/MS analysis; type: ADME, Microsome; settings: read-out: CLH
[32] = target: Serine/threonine-protein kinase mTOR (Mus musculus) (UniProt Q9JLN9); test: Inhibition of mTOR in mouse primary cortical neuron harboring TSC1 deletion mutant assessed as reduction in PS6 phosphorylation incubated for 4 hrs by Western blot analysis
[33] = Drug uptake in C57BL/6J mouse plasma at 1 mg/kg, po incubated for 3 hrs by LC-MS/MS analysis; type: ADME, organism-based

Phosphatidylinositol 4,5-bisphosphate 3-kinase catalytic subunit beta isoform, sequence (P42338 whole entry, canonical isoform): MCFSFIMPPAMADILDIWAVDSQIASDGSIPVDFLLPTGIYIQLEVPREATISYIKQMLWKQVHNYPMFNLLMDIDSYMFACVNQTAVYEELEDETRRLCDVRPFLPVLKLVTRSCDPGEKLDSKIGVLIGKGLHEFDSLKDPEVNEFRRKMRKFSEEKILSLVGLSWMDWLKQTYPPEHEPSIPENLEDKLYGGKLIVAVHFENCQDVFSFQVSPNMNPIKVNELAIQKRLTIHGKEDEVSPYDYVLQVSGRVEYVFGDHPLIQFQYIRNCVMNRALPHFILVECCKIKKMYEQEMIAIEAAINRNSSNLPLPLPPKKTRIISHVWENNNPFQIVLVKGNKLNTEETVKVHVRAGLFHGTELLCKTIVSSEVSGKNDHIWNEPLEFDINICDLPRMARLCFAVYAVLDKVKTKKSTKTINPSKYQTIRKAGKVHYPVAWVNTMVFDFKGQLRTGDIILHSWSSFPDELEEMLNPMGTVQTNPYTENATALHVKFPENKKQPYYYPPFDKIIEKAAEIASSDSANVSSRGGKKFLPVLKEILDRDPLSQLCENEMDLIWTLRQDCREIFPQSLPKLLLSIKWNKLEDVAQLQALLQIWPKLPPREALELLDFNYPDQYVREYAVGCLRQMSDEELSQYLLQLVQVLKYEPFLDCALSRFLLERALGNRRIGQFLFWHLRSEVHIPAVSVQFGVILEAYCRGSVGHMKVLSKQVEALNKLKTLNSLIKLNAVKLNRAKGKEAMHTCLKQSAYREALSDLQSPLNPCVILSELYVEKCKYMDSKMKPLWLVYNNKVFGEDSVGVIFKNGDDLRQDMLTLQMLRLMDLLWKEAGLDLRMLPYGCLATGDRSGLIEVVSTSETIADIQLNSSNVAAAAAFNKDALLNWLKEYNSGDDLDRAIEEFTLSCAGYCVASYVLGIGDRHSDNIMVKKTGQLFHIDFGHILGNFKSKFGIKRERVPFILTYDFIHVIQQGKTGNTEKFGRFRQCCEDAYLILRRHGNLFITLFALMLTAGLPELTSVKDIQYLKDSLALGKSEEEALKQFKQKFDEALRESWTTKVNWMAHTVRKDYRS
Phosphatidylinositol 4,5-bisphosphate 3-kinase catalytic subunit delta isoform, sequence (O00329 whole entry, canonical isoform): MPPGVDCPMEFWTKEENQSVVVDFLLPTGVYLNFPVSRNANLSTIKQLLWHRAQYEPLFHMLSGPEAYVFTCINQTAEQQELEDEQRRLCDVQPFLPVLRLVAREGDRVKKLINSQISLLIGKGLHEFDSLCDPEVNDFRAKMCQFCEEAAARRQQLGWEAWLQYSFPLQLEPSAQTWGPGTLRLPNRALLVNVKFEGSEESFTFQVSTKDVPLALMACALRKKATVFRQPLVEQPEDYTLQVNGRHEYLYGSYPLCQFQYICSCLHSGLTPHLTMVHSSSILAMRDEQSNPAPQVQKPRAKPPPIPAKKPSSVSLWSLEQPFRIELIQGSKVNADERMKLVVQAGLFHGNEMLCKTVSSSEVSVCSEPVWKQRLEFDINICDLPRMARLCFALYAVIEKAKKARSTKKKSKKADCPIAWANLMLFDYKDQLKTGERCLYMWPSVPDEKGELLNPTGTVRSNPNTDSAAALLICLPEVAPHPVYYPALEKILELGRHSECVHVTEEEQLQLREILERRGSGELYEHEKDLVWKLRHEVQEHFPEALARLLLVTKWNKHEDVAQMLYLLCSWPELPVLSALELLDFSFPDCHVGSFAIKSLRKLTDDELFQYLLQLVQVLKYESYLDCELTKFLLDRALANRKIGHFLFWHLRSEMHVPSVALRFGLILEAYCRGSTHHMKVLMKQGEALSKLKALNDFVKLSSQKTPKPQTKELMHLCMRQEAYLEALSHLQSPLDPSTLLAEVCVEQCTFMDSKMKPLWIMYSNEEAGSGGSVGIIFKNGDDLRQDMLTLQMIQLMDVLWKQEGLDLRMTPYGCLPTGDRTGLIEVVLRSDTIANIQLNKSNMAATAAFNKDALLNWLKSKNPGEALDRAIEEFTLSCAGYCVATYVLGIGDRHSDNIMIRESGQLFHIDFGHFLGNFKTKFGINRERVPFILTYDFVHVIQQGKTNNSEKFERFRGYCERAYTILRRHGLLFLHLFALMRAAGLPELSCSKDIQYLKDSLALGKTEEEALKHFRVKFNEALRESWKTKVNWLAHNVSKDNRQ
Cytochrome P450 2D6, sequence (P10635 whole entry, canonical isoform): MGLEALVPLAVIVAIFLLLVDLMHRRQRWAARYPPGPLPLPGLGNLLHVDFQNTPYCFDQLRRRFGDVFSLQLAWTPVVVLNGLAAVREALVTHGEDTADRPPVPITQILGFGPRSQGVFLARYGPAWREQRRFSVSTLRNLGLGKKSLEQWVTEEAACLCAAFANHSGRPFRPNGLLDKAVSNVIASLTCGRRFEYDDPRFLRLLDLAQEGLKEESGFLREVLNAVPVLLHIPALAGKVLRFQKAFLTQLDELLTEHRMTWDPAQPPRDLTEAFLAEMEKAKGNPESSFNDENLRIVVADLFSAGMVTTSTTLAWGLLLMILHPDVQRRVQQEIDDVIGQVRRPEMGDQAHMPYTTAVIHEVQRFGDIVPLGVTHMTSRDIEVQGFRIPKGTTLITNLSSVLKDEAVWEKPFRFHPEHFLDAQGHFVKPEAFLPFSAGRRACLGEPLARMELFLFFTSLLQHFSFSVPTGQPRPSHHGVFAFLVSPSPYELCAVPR
Phosphatidylinositol 4,5-bisphosphate 3-kinase catalytic subunit gamma isoform, sequence (P48736 whole entry, canonical isoform): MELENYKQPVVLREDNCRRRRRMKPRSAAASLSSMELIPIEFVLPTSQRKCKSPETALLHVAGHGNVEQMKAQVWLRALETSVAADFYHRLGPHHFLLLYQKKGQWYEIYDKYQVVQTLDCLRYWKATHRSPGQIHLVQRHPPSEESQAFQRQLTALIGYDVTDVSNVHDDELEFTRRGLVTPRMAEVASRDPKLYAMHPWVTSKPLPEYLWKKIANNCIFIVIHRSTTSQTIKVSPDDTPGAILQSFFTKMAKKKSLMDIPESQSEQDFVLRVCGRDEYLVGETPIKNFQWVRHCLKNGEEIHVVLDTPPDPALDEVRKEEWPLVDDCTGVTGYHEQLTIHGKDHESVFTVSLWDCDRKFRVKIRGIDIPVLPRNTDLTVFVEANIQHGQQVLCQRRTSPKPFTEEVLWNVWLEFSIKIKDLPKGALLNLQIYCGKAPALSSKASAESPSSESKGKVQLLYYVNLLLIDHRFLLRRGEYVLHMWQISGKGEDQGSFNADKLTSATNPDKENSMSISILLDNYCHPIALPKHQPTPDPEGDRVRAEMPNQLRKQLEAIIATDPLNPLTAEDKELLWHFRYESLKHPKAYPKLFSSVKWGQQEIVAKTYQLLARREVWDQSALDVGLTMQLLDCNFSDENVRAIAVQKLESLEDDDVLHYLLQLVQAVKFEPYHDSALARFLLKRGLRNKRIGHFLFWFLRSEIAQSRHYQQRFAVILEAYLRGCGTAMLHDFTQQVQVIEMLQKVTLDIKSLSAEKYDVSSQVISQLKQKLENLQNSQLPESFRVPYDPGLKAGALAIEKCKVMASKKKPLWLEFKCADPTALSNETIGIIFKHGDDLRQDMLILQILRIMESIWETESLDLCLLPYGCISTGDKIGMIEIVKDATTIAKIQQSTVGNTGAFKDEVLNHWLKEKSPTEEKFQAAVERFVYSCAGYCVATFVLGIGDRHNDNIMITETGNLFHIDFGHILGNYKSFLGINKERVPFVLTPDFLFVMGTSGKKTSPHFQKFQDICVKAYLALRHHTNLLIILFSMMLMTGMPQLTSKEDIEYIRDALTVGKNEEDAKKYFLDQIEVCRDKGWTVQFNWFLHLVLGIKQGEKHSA
Cytochrome P450 3A4, sequence (P08684 whole entry): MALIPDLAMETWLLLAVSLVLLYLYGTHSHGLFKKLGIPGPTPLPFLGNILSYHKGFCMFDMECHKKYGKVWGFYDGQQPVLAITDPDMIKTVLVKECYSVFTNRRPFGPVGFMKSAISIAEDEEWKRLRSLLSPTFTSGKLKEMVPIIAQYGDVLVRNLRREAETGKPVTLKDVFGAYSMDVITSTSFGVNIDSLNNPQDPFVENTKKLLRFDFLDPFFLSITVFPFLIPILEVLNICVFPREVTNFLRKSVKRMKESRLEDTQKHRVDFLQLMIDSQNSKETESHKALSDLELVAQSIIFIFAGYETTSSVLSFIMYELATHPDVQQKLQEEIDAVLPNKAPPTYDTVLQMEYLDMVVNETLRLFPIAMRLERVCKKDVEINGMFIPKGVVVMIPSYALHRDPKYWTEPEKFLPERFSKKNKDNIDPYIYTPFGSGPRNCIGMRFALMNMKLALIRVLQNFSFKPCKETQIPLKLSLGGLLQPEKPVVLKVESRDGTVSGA

## C[C@@H]1COCCN1c1nc(N2CCOC[C@@H]2C)nc2sc(-c3cc[nH]n3)nc12
[1]
  concentration at 3 h: 5820 nM
[2]
  IC50: > 10000 nM
Mus musculus [3]
  inhibition: inactive
Cortical neurone
  inhibition: Active
[4]
  Kp at 1 h: 4
[5]
  Kp at 3 h: 1.1
Mus musculus [6]
  inhibition: Active
[7]
  microsomal CLint: 42 µL/min/mg
[8]
  Kp at 7 h: 1.2
[9]
  IC50: 17 nM
Mus musculus [10]
  inhibition: inactive
Cytochrome P450 3A4
  K: 0.006 min⁻¹
[11]
  Ratio IC50: 38
Mus musculus [12]
  inhibition: inactive
[13]
  Ratio IC50: 70
[14]
  AUC(0-t): 4.41 µM·h
[15]
  IC50: 14 nM
[16]
  half-life: 4.3 h
Cytochrome P450 2D6
  IC50: > 50000 nM
[17]
  IC50: > 10000 nM
[18]
  MRT last: 4.3 h
[19]
  Kp at 0.5 h: 1
[20]
  Vd: 2.3 L/kg
[21]
  AUC(0-t): 10.5 µM·h
[22]
  Tmax: 1.5 h
[23]
  bioavailability: 61%
[24]
  concentration at 3 h: 2390 nM
[25]
  AUC(0-t): 4.34 µM·h
[26]
  IC50: 37 nM
[27]
  IC50: 1700 nM
[28]
  IC50: 11 nM
[29]
  clearance: 9.5 mL/min/kg
[30]
  fraction unbound at 4 h, 5 µM: 0.004
[31]
  microsomal CLint at 1 µM: 42 µL/min/mg
[32]
  inhibition: Dose-dependent effect
[33]
  concentration at 3 h: 826 nM
